Patent US20090215748A1, “FXR agonists for treating vitamin D associated diseases” (Wyeth, priority 2007, published 2009)

Experiments:
Format in all cases: in vivo
renin = test: Renal renin gene expression in KKAy mice, 4 weeks treatment (FIG. 6); conditions: once a day for 4 weeks
From the text: Vitamin D and its receptor vitamin D receptor (VDR) may regulate the cardiovascular system. VDR deficient and CYP27B1 deficient mice have increased blood pressure and left ventricle hypertrophy.

OVX rats = test: OVX-induced bone loss in OVX rats; conditions: 3 and 30 mg/kg, 6-10 weeks of treatment
From the text: OVX rats are rats subjected to bilateral ovariectomy, which results in development of osteopenia. Two studies have been conducted to evaluate the effect of one of the FXR agonists disclosed herein, isopropyl 3-(3,4-difluorobenzoyl)-1,1-dimethyl-1,2,3,6-tetrahydroazepino[4,5-b]-indole-5-carboxylate, in OVX rats. […] The exposure level of the compound in bone tissue of the rats was not studied and the EC50 of the compound in bone cells was not studied. Accordingly, the reason for the absence of an observable effect has not been determined.

CYP27B1 [1] = test: Gene profiling of kidneys isolated from KKAy mice treated with Compound A
Experimental: To examine the role of FXR in the kidney, gene-profiling experiments were performed using kidneys isolated from KKAy mice treated with Compound A. Genes involved in vitamin D synthesis, calcium mobilization, amino acid metabolism, inflammation, oxidative phosphorylation, and nitric oxide production were regulated by Compound A treatment. […] The CYP27B1 gene, expressed in the proximal tubes of the kidney, encodes 25-hydroxyvitamin D3 1α-hydroxylase, which generates the active form of vitamin D, 1α,25-dihydroxyvitamin D3, from a proform of vitamin D, 25 hydroxyvitamin D3.

KKAy mice [2] = test: Serum creatinine level in KKAy mice, 7 days oral dosing (FIG. 3); conditions: orally once a day for seven days, not statistically significant
KKAy mice [3] = test: Hepatic lipid metabolism and deposition in the KKAy model of diabetic nephropathy
From the text: The KKAy mice are diabetic mice characterized by hyperglycemia and insulin resistance and are renally impaired with nodular glomerulosclerosis, mesangial proliferation, and abuminuria that increases with age or with a high cholesterol diet. Abnormal lipid metabolism and renal lipid accumulation may contribute to diabetic nephropathy. Administration of FXR agonist, Compound A (isopropyl 3-(3,4-difluorobenzoyl)-1,1-dimethyl-1,2,3,6-tetrahydroazepino[4,5-b]indole-5-carboxylate) improves hepatic lipid metabolism and deposition in the KKAy model of diabetic nephropathy.

CYP27B1 [4] = test: CYP27B1 gene expression in chow fed KKAy mice, 7 day treatment (FIG. 4)
MMP-14 = MMP-14 gene expression in chow fed KKAy mice, 7 day treatment (FIG. 5)
CYP27B1 [5] = test: CYP27B1 expression in FXR deficient (FXR KO) mice, 7 day treatment (FIG. 1)
CYP27B1 [6] = test: CYP27B1 expression in wild (WT) mice, 7 day treatment (FIG. 1)

Structure (SMILES): CC(C)OC(=O)C1=CN(C(=O)c2ccc(F)c(F)c2)CC(C)(C)c2c1[nH]c1ccccc21 [Compound A, isopropyl 3-(3,4-difluorobenzoyl)-1,1-dimethyl-1,2,3,6-tetrahydroazepino[4,5-b]indole-5-carboxylate]
- renal renin gene expression (renin): significant reduction
- effect on preventing or restoring OVX-induced bone loss (OVX rats): did not show any effect
- CYP27B1 gene expression (CYP27B1 [1]): upregulated
- reduction in serum creatinine levels (KKAy mice [2]): 20%
- hepatic lipid metabolism and deposition (KKAy mice [3]): improves
- CYP27B1 gene expression (CYP27B1 [4]): upregulated
- MMP-14 gene expression (MMP-14): decreased
- effect on the expression of CYP27B1 (CYP27B1 [5]): No effect
- expression of CYP27B1, induction (CYP27B1 [6]): 15 fold
